# Experimental data as given in PubChem BioAssay AID2060502 (Molecular Pharmacology Branch, DTP, NCI, 2025).
# Test system: 885724-159-R-J1-PDC complex spheroid viability
# Test: Anticancer human tumor 885724-159-R-J1-PDC patient-derived pancreatic adenocarcinoma cell line growth inhibition [GQUAD]
# Details: for IC50: curve of first compound; for viability, T/C: stronger effect = lower value
# Source text: DNA G-quadruplex Stabilizer Agents in Combinations in Complex Spheroids
# A high-throughput screen of multi-cell type tumor spheroids was designed to identify active combinations of DNA G-quadruplex stabilizer agents and targeted small molecules. Complex spheroids include a stromal component modeled by human endothelial cells (HUVEC) and fibroblasts modeled by human mesenchymal stem cells (MSCs). The concentration ranges selected for each drug and investigational agent were based upon clinically achievable concentrations if the clinical Cmax of the agent was known.
# Compounds. The drugs and investigational agents: pidnarulex (CX-5461; NSC782164), APTO-253 (NSC789042), BRACO-19 (NSC847499), peposertib (NSC802822), ceralasertib (NSC780249), elimusertib (NSC800525), camonsertib (NSC841442), AZD-1390 (NSC803789), olaparib (NSC753686), talazoparib (NSC767125), ART-558 (NSC835418), sotorasib (NSC818433), MRTX-1133 (NSC836407), SN-38 (NSC673596), topotecan (NSC609699), etoposide (NSC141540), doxorubicin (NSC123127), gemcitabine (NSC613327), 5-fluorouracil (NSC19893), paclitaxel (NSC125973), vemurafenib (NSC761431), panobinostat (NSC761190), R-306465 (JNJ-16241199; NSC773264), adavosertib (NSC754352), TP-3654 (NSC805149), carboplatin (NSC241240), KSQ-4279 (NSC840948), and staurosporine (NSC755774) were obtained from the National Cancer Institute (NCI) Developmental Therapeutics Program Chemical Repository (34). The FDA-approved anticancer drug set is available from the NCI Developmental Therapeutics Program. […] The stock solutions were prepared in dimethyl sulfoxide (DMSO, Sigma-Aldrich, St. Louis, MO, cat. D2650) at 800-fold the tested concentration and stored at -70 degrees C prior to their use. All drugs and investigational agents were tested over a range starting from a high concentration at or near the clinical Cmax and decreasing in half-log increments. If the clinical Cmax for an agent had not been determined, the highest concentration tested was 10 microM.
# 2.3 Cell Culture. All cells were maintained in an incubator at 37 degrees C and 5% CO2 with 95% humidity. The PDC lines were cultured according to standard operating procedures established by the NCI PDMR. All PDCs were thawed and cultured in Matrigel-coated flasks prepared with a working solution of 1X Ham's F-12 nutrient mix, without supplementation (Invitrogen, cat. 11765054), 100 U/mL penicillin-streptomycin (Invitrogen, cat. 15140122), and 2.5% Matrigel (Corning Inc., cat. 354248) for the first three passages. The 857933-349-R-J2-PDC line was cultured in 6C/Colon 1B media, which includes advanced DMEM/F-12 (Thermo Fisher Scientific, cat. 12634028), 10 mM HEPES (Thermo Fisher Scientific, cat. 15630080), 1X GlutaMAX supplement (Thermo Fisher Scientific, cat. 35050061), 0.1 mg/mL primocin (InvivoGen, cat. ant-pm-2), 10% defined fetal bovine serum, heat inactivated (HyClone Laboratories Inc., cat. SH30070.03HI), 50% L-WRN conditioned media (ATCC, cat. CRL-3276), 1.25 mM N-Acetyl-L-cysteine (Sigma-Aldrich, cat. A9165), 10 mM nicotinamide (Sigma-Aldrich, cat. N0636), 1X B-27 supplement (Thermo Fisher Scientific, cat. 17504044), 1X N-2 supplement (Thermo Fisher Scientific, cat. 17502048), 10 microM Y-27632 dihydrochloride (Tocris Bioscience, cat. 1254), and 50 ng/mL human EGF recombinant protein (Thermo Fisher Scientific, cat. PHG0311). The 485176-168-R4-J1-PDC line was cultured in Panc media, which includes all 6C/Colon 1B media components plus 100 ng/mL human FGF-10 (Thermo Fisher Scientific, cat. 100-26), 500 nM SB-431542 (Selleckchem, cat. S1067), and gastrin (Tocris, cat. 3006).
# […]
# [1] = second compound 0.0316 µM, first compound 0.0316 µM
# [2] = second compound 0.0316 µM, first compound 0.1 µM
# [3] = second compound 0.0316 µM, first compound 0.316 µM
# [4] = second compound 0.0316 µM, first compound 1 µM
# [5] = second compound 0.0316 µM, first compound 3.16 µM
# [6] = second compound 0.0316 µM, first compound 10 µM
# [7] = second compound 0.1 µM, first compound 0.0316 µM
# [8] = second compound 0.1 µM, first compound 0.1 µM
# [9] = second compound 0.1 µM, first compound 0.316 µM
# [10] = second compound 0.1 µM, first compound 1 µM
# [11] = second compound 0.1 µM, first compound 3.16 µM
# [12] = second compound 0.1 µM, first compound 10 µM
# [13] = second compound 0.316 µM, first compound 0.0316 µM
# [14] = second compound 0.316 µM, first compound 0.1 µM
# [15] = second compound 0.316 µM, first compound 0.316 µM
# [16] = second compound 0.316 µM, first compound 1 µM
# [17] = second compound 0.316 µM, first compound 3.16 µM
# [18] = second compound 0.316 µM, first compound 10 µM
# [19] = second compound 1 µM, first compound 0.0316 µM
# [20] = second compound 1 µM, first compound 0.1 µM
# [21] = second compound 1 µM, first compound 0.316 µM
# [22] = second compound 1 µM, first compound 1 µM
# [23] = second compound 1 µM, first compound 3.16 µM
# [24] = second compound 1 µM, first compound 10 µM
# [25] = second compound 3.16 µM, first compound 0.0316 µM
# [26] = second compound 3.16 µM, first compound 0.1 µM
# [27] = second compound 3.16 µM, first compound 0.316 µM
# [28] = second compound 3.16 µM, first compound 1 µM
# [29] = second compound 3.16 µM, first compound 3.16 µM
# [30] = second compound 3.16 µM, first compound 10 µM
# [31] = second compound 10 µM, first compound 0.0316 µM
# [32] = second compound 10 µM, first compound 0.1 µM
# [33] = second compound 10 µM, first compound 0.316 µM
# [34] = second compound 10 µM, first compound 1 µM
# [35] = second compound 10 µM, first compound 3.16 µM
# [36] = second compound 10 µM, first compound 10 µM
# 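Also: spheroids exposed to agents for seven days before readout.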
# 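For viability, T/C in this document: percent of vehicle control viability where 100% = DMSO wells.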
smiles,measurement,setting,value
C#Cc1c(F)ccc2cc(O)cc(-c3ncc4c(N5CC6CCC(C5)N6)nc(OCC56CCCN5CC(F)C6)nc4c3F)c12 (centres undefined) + Cc1[nH]c2ccc(F)cc2c1-c1nc2c3cccnc3c3ncccc3c2[nH]1,IC50,second compound 0.0316 µM,4.05 µM
same,IC50,second compound 0.1 µM,3.75 µM
same,IC50,second compound 0.316 µM,4.07 µM
same,IC50,second compound 1 µM,3.55 µM
same,IC50,second compound 3.16 µM,< 0.0316 µM
same,IC50,second compound 10 µM,4.5 µM
same,"viability, T/C",[1],97%
same,"viability, T/C",[2],89.2%
same,"viability, T/C",[3],90.3%
same,"viability, T/C",[4],76.1%
same,"viability, T/C",[5],57.5%
same,"viability, T/C",[6],23.4%
same,"viability, T/C",[7],101%
same,"viability, T/C",[8],97.8%
same,"viability, T/C",[9],102%
same,"viability, T/C",[10],87.4%
same,"viability, T/C",[11],54.6%
same,"viability, T/C",[12],24.9%
same,"viability, T/C",[13],94.5%
same,"viability, T/C",[14],80.4%
same,"viability, T/C",[15],85.4%
same,"viability, T/C",[16],62.9%
same,"viability, T/C",[17],63.1%
same,"viability, T/C",[18],28%
same,"viability, T/C",[19],72.5%
same,"viability, T/C",[20],69.2%
same,"viability, T/C",[21],75%
same,"viability, T/C",[22],59.4%
same,"viability, T/C",[23],54.2%
same,"viability, T/C",[24],29.5%
same,"viability, T/C",[25],18.4%
same,"viability, T/C",[26],8.81%
same,"viability, T/C",[27],12.7%
same,"viability, T/C",[28],11.5%
same,"viability, T/C",[29],9.79%
same,"viability, T/C",[30],6.07%
same,"viability, T/C",[31],63.1%
same,"viability, T/C",[32],75.8%
same,"viability, T/C",[33],66%
same,"viability, T/C",[34],61.2%
same,"viability, T/C",[35],63.2%
same,"viability, T/C",[36],21.7%
CC1COCCN1c1cc(-c2ccnn2C)c2ccnc(-c3ccn[nH]3)c2n1 (centres undefined) + Cc1[nH]c2ccc(F)cc2c1-c1nc2c3cccnc3c3ncccc3c2[nH]1,IC50,second compound 0.0316 µM,> 10 µM
same,IC50,second compound 0.1 µM,> 10 µM
same,IC50,second compound 0.316 µM,8.46 µM
same,IC50,second compound 1 µM,2.85 µM
same,IC50,second compound 3.16 µM,0.0524 µM
same,IC50,second compound 10 µM,4.98 µM
same,"viability, T/C",[1],104%
same,"viability, T/C",[2],87.3%
same,"viability, T/C",[3],87.2%
same,"viability, T/C",[4],76.9%
same,"viability, T/C",[5],53.3%
same,"viability, T/C",[6],53.8%
same,"viability, T/C",[7],99.7%
same,"viability, T/C",[8],104%
same,"viability, T/C",[9],89.8%
same,"viability, T/C",[10],73.5%
same,"viability, T/C",[11],62.5%
same,"viability, T/C",[12],51.8%
same,"viability, T/C",[13],98.7%
same,"viability, T/C",[14],84.7%
same,"viability, T/C",[15],68.7%
same,"viability, T/C",[16],61.1%
same,"viability, T/C",[17],56.6%
same,"viability, T/C",[18],48%
same,"viability, T/C",[19],80.4%
same,"viability, T/C",[20],68.9%
same,"viability, T/C",[21],63.8%
same,"viability, T/C",[22],54.5%
same,"viability, T/C",[23],51%
same,"viability, T/C",[24],43.5%
same,"viability, T/C",[25],54.8%
same,"viability, T/C",[26],39.6%
same,"viability, T/C",[27],47.9%
same,"viability, T/C",[28],28.2%
same,"viability, T/C",[29],24.8%
same,"viability, T/C",[30],30.6%
same,"viability, T/C",[31],66.3%
same,"viability, T/C",[32],66%
same,"viability, T/C",[33],62.9%
same,"viability, T/C",[34],52.9%
same,"viability, T/C",[35],51.8%
same,"viability, T/C",[36],47.9%
